Assays:
hCA II = hCA II (Homo sapiens, UniProt P00918); assay: hCA II inhibition, spectrophotometric esterase method (p-nitrophenyl acetate); type: biochemical; conditions: p-nitrophenyl acetate substrate, 348 nm; for Ki: read-out: K i (μM) hCA II
Procedure: (§1) In this study, Sepharose-4B L-Tyrosine sulfanilamide affinity chromatography was employed to purify both CA isozymes in a single phase. A previous process was used to manufacture the column chemical material for affinity chromatography containing Sepharose-4B-L-Tyrosine-Sulfanilamide. As previously shown, the protein molecules’ flow in the column eluates was measured spectrophotometrically at 280 nm. […] The substrate used, p-nitrophenyl acetate, was enzymatically converted by both isoenzymes into p-nitrophenolate ions.

PNT1a cells = assay: Cell viability assay (CVDK-8), PNT1a cells; type: cell-based; conditions: Homo sapiens, viability of PNT1a normal prostate epithelial cells, 24 h treatment
Procedure: (§2) In this research, the inhibitory effects of the compounds under investigation on cell viability were assessed using two distinct human cell lines: specifically, the DU145 cell line, representative of prostate cancer, and the PNT1a cell line, which serves as a model for normal human prostate epithelial cells. Cells were routinely cultured in RPMI-1640 medium supplemented with 10% fetal bovine serum, 1% penicillin/streptomycin (Gibco), and 1% L-glutamine. All cells were maintained in a 5% CO2 humidified incubator at 37 °C.
(§3) Effects of all compounds synthesized in this study on the viability of PNT1a and DU145 cells were analyzed using the Cell Viability Detection Kit-8 (CVDK-8, Ecotech Biotechnology, Erzurum, Turkey). In brief, cells were seeded at a concentration of 3 × 10^3 cells per well within 100 μL medium in 96 well plates. Then, cells were treated with compounds at concentrations of […] for 24 h. After treatment with the test compounds, the medium was removed and fresh RPMI-1640 medium containing 1/10 CVDK- 8 reagent was added to each well, and plates were incubated for 3 h at 37 °C protected from light. After the incubation period, optical densities were measured using Epoch spectrophotometer at 450 nm. For cell culture, experiments were performed in triplicate, and data were analyzed by t tests.

hCA I = hCA I (Homo sapiens, UniProt P00915); assay: hCA I inhibition, spectrophotometric esterase method (p-nitrophenyl acetate); type: biochemical; conditions: p-nitrophenyl acetate substrate, 348 nm; for Ki: read-out: K i (μM) hCA I
Chain of hCA I (P00915 whole entry): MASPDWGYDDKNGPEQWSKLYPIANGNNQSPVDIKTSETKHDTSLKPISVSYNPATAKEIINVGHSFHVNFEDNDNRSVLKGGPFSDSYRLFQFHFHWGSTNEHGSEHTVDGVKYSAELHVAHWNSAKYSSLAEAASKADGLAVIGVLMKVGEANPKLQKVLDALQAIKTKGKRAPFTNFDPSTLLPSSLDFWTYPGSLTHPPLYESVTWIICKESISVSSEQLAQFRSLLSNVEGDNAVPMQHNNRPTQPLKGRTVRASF
Procedure: as §1

DU145 cells = assay: Cell viability assay (CVDK-8), DU145 cells; type: cell-based, human; conditions: for effect on viability of cancer cells (in words): DU145, 1, 10 and 100 μM, 24 h; for IC50: Homo sapiens, DU-145, viability of DU145 cells, 24 h treatment, CVDK-8; for selectivity indices (SI) PNT1a IC50/DU145 IC50: ratio PNT1a IC50/DU145 IC50, 24 h
Procedure: as §2, §3

| IC50 (hCA II) | Ki (hCA II) | IC50 (hCA I) | Ki (hCA I) | IC50 (DU145 cells) | selectivity indices (SI) PNT1a IC50/DU145 IC50 (DU145 cells) | Compound | IC50 (PNT1a cells) | effect on viability of cancer cells (in words) (DU145 cells) |
| --- | --- | --- | --- | --- | --- | --- | --- | --- |
| 15.3 µM | 19.7 ± 2.48 µM | 11.4 µM | 14 ± 1.15 µM | 73.2 ± 11.5 µM | 6.74 | CC(=O)n1nc(C)n(N=Cc2cccc(OS(=O)(=O)c3ccc(C)cc3)c2)c1=O [6a, 3-[((1-Acetyl-3-methyl-5-oxo-1,5-dihydro-4H-1,2,4-triazol-4-yl)-imino)-methyl]-phenyl-4-methylbenzenesulfonate] | > 100 µM | decreased the viability of cancer cells in a dose-dependent manner |
| 18.4 µM | 21.9 ± 3.48 µM | 13.7 µM | 16.7 ± 2.14 µM | – | – | CCc1nn(C(C)=O)c(=O)n1N=Cc1cccc(OS(=O)(=O)c2ccc(C)cc2)c1 [6b, 3-[((1-Acetyl-3-ethyl-5-oxo-1,5-dihydro-4H-1,2,4-triazol-4-yl)-imino)-methyl]-phenyl-4-methylbenzenesulfonate] | – | – |
| 14.5 µM | 17.3 ± 2.41 µM | 10.2 µM | 13.1 ± 1.02 µM | > 100 µM | 1.22 | CC(=O)n1nc(Cc2ccccc2)n(N=Cc2cccc(OS(=O)(=O)c3ccc(C)cc3)c2)c1=O [6c, 3-[((1-Acetyl-3-benzyl-5-oxo-1,5-dihydro-4H-1,2,4-triazol-4-yl)-imino)-methyl]-phenyl-4-methylbenzenesulfonate] | > 100 µM | did not suppress the viability of cancer cells in low concentrations |
| 10.6 µM | 11.7 ± 1.01 µM | 7.12 µM | 9.26 ± 0.88 µM | 49.8 ± 11.1 µM | 2.28 | CC(=O)n1nc(Cc2ccc(C)cc2)n(N=Cc2cccc(OS(=O)(=O)c3ccc(C)cc3)c2)c1=O [6d, 3-[((1-Acetyl-3-p-methylbenzyl-5-oxo-1,5-dihydro-4H-1,2,4-triazol-4-yl)-imino)-methyl]-phenyl-4-methylbenzenesulfonate] | > 100 µM | did not suppress the viability of cancer cells in low concentrations |
| 16.8 µM | 18.1 ± 2.47 µM | 12.3 µM | 14.2 ± 1.1 µM | > 100 µM | 5.23 | CC(=O)n1nc(Cc2ccc(Cl)cc2)n(N=Cc2cccc(OS(=O)(=O)c3ccc(C)cc3)c2)c1=O [6e, 3-[((1-Acetyl-3-p-chlorobenzyl-5-oxo-1,5-dihydro-4H-1,2,4-triazol-4-yl)-imino)-methyl]-phenyl-4-methylbenzenesulfonate] | > 100 µM | decreased the viability of cancer cells in a dose-dependent manner |
